# From patent US20260216328A1, “DISRUPTABLE LINKER COMPOSITIONS, SWITCHABLE BISPECIFIC T CELL NANOENGAGER (SWITCH-BITE) COMPOSITIONS COMPRISING THE SAME, AND METHODS OF USE THEREOF” (The Trustees of the University of Pennsylvania, priority 2023, published 2026)
# Legend:
# [1] = Half-life, distribution and clearance of AMD in mice; format: in vivo; details: mouse; for half-life: blood, intravenous
# E0771-HER2 tumour [2] = assay: AMD-mediated in vivo disassembly of SiTE-Cy7 (Cy7 signal in tumour); set-up: species or system mouse; details: 18 h post-SiTE-Cy7, read 6 h later
# Experimental: FIGS. 19A-19C: SiTE was labeled with Cy7 dye (Cy7 was labeled on CD3 Fab) and was i.v. injected to tumour-bearing mice at 0 h. Then. PBS. […] 6 h later, mice were euthanized and the Cy7 signal in different organs and tumour was measured using IVIS. […] FIG. 19E: quantification of the fluorescence in tumour tissues in a-c. Data was shown as mean±SD (n=3), statistical differences were analyzed using two-tailed unpaired Student's t-test. […] SiTE-Cy7 was i.v. infused into tumour bearing mice at 0 h. […] After 24 h, mice were euthanized and the Cy7 signal distribution in major organs and mice body was observed. Cy7 signal was detected in the spleen, kidney and bladder.
# Next, determination as to whether AMD can be used to break down the SiTE in vivo was sought. Cy7 was modified to the CD3 Fab and the Fab assembled with HER2 Fab to formulate SiTE-Cy7. SiTE-Cy7 was i.v. injected to E0771-HER2 tumour-bearing mice at 0 h. […] Mice were euthanized 6 h later and the Cy7 signal in different organs and tumour was measured using an in vivo imaging system (IVIS). […] Most supramolecular chemistry-based strategies for controllable chemotherapeutic release have only been tested in in vitro studies, and only a few in vivo controllable drug release strategies have been reported in this space. […]
# E0771-HER2 tumour [3] = assay: E0771-HER2 tumour model with HER2 expression in the liver (on-target, off-tumour toxicity)
# Experimental: FIG. 26A: mouse model with expression of human HER2 antigen in the liver was constructed using a piggyback transposon system delivered via lipid nanoparticles (LNPs) encapsulating two plasmids, pCMV-hyPBase and pPB7 TBG.human HER2.P2A.IRFP720, at day −30. At day 0, 10^6 E0771-HER2 tumour cells were injected s.c. into the right flank at day 0. […] FIGS. 26B-26D: mouse tumour growth curves, measurements of mouse body weight, and survival curves, respectively. n=8 mice. P value in FIG. 26D was determined using Log-rank (Mantel-Cox) test. […] FIGS. 26E-26K: measurements of markers for inflammation and toxicity including AST, ALT, TNF-α, IFN-γ, and IL-2 levels in mouse blood at different time points. n=3 mice. […] H&E staining was conducted to detect liver damage in different groups. Scale bar: […]. […] Blue: DAPI: Red, CD3^+ T cells. […] (n=5).
# T cell infiltration in the liver was measured using flow (FIG. 27A). FIG. 27B: liver T cells in different treatment groups at day 13. […] P values were indicated in FIGS. 27B-27C, analyzed by two-tailed unpaired Student's t-test. n=3.
# Recently, a mouse model was reported with stable human HER2 antigen expression in the mouse liver. […] Here, the construction of this mouse model was modified and two plasmids were delivered using a lipid nanoparticle (FIGS. 25A-25D). […] Next, a E0771-HER2 tumour model was constructed in mice with HER2 expression in the liver (FIG. 26A). […] The mice were then monitored for tumour growth, body weight, and survival (FIGS. 26B-26D).
# [4] = test system: Raji-Luc-GFP tumour cells; assay: Humanized immune system mice with liver CD19 and Raji-Luc-GFP tumour; details: AMD i.v. at day 7 after SiTE
# [5] = AMD dispersed in 5% polyoxyethylene castor oil
smiles,measurement,setting,value
"NC12CC3CC(CC(C3)C1)C2 [AMD, adamantan-1-amine]",half-life,[1]; [5],~24 h
same,half-life,[1]; AMD dispersed in PBS,~9 h
same,clearance,[1]; in vivo,cleared from the urine
same,Cy7 signal decrease compared to PBS treatment,E0771-HER2 tumour [2]; [5],over 78%
same,decrease in Cy7 signal in the tumour,E0771-HER2 tumour [2]; AMD dispersed in PBS,~46%
same,body weight,E0771-HER2 tumour [3]; 100 μg AMD on day 13 after SiTE,gradual increases in body weight and recovered to a normal range
same,ALT and AST levels in blood,E0771-HER2 tumour [3]; 24 h after AMD infusion following SiTE,returned to lower levels
same,T cells in liver tissue,E0771-HER2 tumour [3]; AMD infusion after SiTE treatment,greatly decreased the number of T cells in liver tissue
same,liver enzyme and cytokine levels in blood,[4],greatly decrease the liver enzyme levels and cytokine levels in blood
